Source: patent US20190313644A1, “METHOD FOR FRUIT THINNING” (Adama Agan Ltd., priority 2015, published 2019)

Assays:
[1] = system: Golden Delicious variety of apples; experiment: Fruit thinning field trial, first and optional second application of metamitron; format: in vivo; details: for Thinning Effect (%): vs untreated control
Procedure: A formulation of metamitron in the form of a soluble granule was diluted to the desired concentration with water. The following concentrations were prepared: • 1.1 Kg/ha metamitron (low dosage) • 1.65 Kg/ha metamitron (medium dosage) • 2.2 Kg/ha metamitron (high dosage) The experiments were conducted on the Golden Delicious variety of apples in Germany and Italy. The first application of metamitron was applied to the fruit trees in May when the fruit was at fruiting stage BBCH69-BBCH72. The second application of metamitron was applied, if applicable, five days after the first application. Local meteorological data was obtained from local weather stations. The meteorological data was inputted into the MaluSim Carbon Balance Model of Lakso (described at […].cornell.edu/apple_thin_help.html, the contents of which are hereby incorporated by reference) in order to obtain the level of carbohydrates available in the fruit tree. The thinning effect is calculated by comparing the treated fruit trees with the untreated control as follows: […]

[2] = system: Golden Delicious variety of apples; experiment: Photosynthetic activity levels of the fruit bearing tree after the first application; format: in vivo
Procedure: The experiments were conducted on the Golden Delicious variety of apples in Germany and Italy. The first application of metamitron was applied to the fruit trees in May when the fruit was at fruiting stage BBCH69-BBCH72. The second application of metamitron was applied, if applicable, five days after the first application. […] Based on this and on the predicted meteorological data for the time of the second application, the second application should be applied at a high dose in order to effectively thin the fruit bearing tree. […] No over-thinning was observed.

[3] = Germany, 1st application 1.65 Kg/ha, 2nd application 0 Kg/ha
[4] = Germany, 1st application 1.65 Kg/ha, 2nd application 1.1 Kg/ha
[5] = Germany, 1st application 1.65 Kg/ha, 2nd application 2.2 Kg/ha
[6] = Germany, 1st application 2.2 Kg/ha, 2nd application 0 Kg/ha
[7] = Germany, 1st application 2.2 Kg/ha, 2nd application 1.1 Kg/ha
[8] = Germany, 1st application 2.2 Kg/ha, 2nd application 1.65 Kg/ha
[9] = Germany, 1st application 2.2 Kg/ha, 2nd application 2.2 Kg/ha
[10] = Italy, 1st application 1.65 Kg/ha, 2nd application 0 Kg/ha
[11] = Italy, 1st application 1.65 Kg/ha, 2nd application 1.1 Kg/ha
[12] = Italy, 1st application 1.65 Kg/ha, 2nd application 2.2 Kg/ha
[13] = Italy, 1st application 2.2 Kg/ha, 2nd application 0 Kg/ha
[14] = Italy, 1st application 2.2 Kg/ha, 2nd application 2.2 Kg/ha

## Cc1nnc(-c2ccccc2)c(=O)n1N [metamitron]
[1]; [3]
  Fruit Load (fruits/tcsa): 11.20 fruits/tcsa
  Thinning Effect (%): 33.2%
[1]; [4]
  Fruit Load (fruits/tcsa): 11.42 fruits/tcsa
  Thinning Effect (%): 31.8%
[1]; [5]
  Fruit Load (fruits/tcsa): 6.83 fruits/tcsa
  Thinning Effect (%): 59.3%
[1]; [6]
  Fruit Load (fruits/tcsa): 11.44 fruits/tcsa
  Thinning Effect (%): 31.8%
[1]; [7]
  Fruit Load (fruits/tcsa): 11.40 fruits/tcsa
  Thinning Effect (%): 32.0%
[1]; [8]
  Fruit Load (fruits/tcsa): 11.98 fruits/tcsa
  Thinning Effect (%): 28.5%
[1]; [9]
  Fruit Load (fruits/tcsa): 8.07 fruits/tcsa
  Thinning Effect (%): 51.8%
[1]; [10]
  Fruit Load (fruits/tcsa): 12.33 fruits/tcsa
  Thinning Effect (%): 31.27%
[1]; [11]
  Fruit Load (fruits/tcsa): 12.30 fruits/tcsa
  Thinning Effect (%): 31.39%
[1]; [12]
  Fruit Load (fruits/tcsa): 9.58 fruits/tcsa
  Thinning Effect (%): 46.57%
[1]; [13]
  Fruit Load (fruits/tcsa): 12.67 fruits/tcsa
  Thinning Effect (%): 29.38%
[1]; [14]
  Fruit Load (fruits/tcsa): 9.37 fruits/tcsa
  Thinning Effect (%): 47.75%
[2]; Germany, after 1st application 1.65 Kg/ha
  Photosynthetic Activity levels: Low
[2]; Germany, after 1st application 2.2 Kg/ha
  Photosynthetic Activity levels: Low
[2]; Italy, after 1st application 1.65 Kg/ha
  Photosynthetic Activity levels: Low
[2]; Italy, after 1st application 2.2 Kg/ha
  Photosynthetic Activity levels: Low
